Experimental data from patent US20090105283A1, “3-HYDROQUINAZOLIN-4-ONE DERIVATIVES FOR USE AS STEAROYL CoA DESATURASE INHIBITORS” (priority 2007, published 2009).

Biological target: T1, stearoyl-CoA desaturase (SCD) (Rattus norvegicus, UniProt P07308)
T1 construct: The microsomes were quickly thawed and added to assay buffer so that a concentration of 0.4 mg/ml was achieved; from tissue
T1 sequence (P07308 1-358): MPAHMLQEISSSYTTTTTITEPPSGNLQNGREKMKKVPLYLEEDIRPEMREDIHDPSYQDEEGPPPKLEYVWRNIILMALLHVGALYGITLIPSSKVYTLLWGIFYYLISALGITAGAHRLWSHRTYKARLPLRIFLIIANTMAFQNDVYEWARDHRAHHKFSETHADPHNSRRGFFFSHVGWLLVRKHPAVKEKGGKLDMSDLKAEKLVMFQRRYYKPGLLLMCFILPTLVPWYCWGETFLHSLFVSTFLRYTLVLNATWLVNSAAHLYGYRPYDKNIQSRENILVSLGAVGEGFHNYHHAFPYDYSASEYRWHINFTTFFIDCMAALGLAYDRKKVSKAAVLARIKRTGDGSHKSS
Experiment: SCD assay with rat liver microsomes ([3H]stearoyl CoA, adapted from Talamo and Bloch)
Assay type: biochemical
Details: [3H]stearoyl CoA substrate
Summary of the method: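 Liver microsomes came from diet-induced male Sprague Dawley rats and were used at 0.2 mg/ml final. Assay buffer was Tris pH 7.2 with NADH, ATP, CoA, MgCl2 and 0.1% BSA. Compounds were preincubated 30 min, then reacted 45 min at room temperature with [3H]stearoyl-CoA; after TCA stop and Bio-Bead cleanup, supernatant radioactivity was counted by scintillation.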

[1] = Table 1, rat liver microsomes 0.2 mg/ml assay final, 30 min preincubation, 45 min reaction, room temperature
[2] = Table 2 (Example 21, procedures of Example 20), rat liver microsomes

IC50 [1] | IC50 [2] | SMILES
250 nM |  | O=C(Nc1ccc2c(=O)n(Cc3ccc(Cl)c(F)c3)cnc2c1)OCc1cccnc1 [LXXVII, N-{3-[(4-chloro-3-fluorophenyl)methyl]-4-oxo(3-hydroquinazolin-7-yl)}(3-pyridylmethoxy)carboxamide]
 | 480 nM | N#Cc1ccccc1OCCCn1cnc2ccc(NC(=O)OCc3ccccc3)cc2c1=O [compound 49, benzyl 3-(3-(2-cyanophenoxy)propyl)-4-oxo-3,4-dihydroquinazolin-6-ylcarbamate]
 | 130 nM | CC(=O)OCC(=O)Nc1ccc2ncn(Cc3ccc(Cl)c(C(F)(F)F)c3)c(=O)c2c1 [compound 6, 2-(3-(4-chloro-3-(trifluoromethyl)benzyl)-4-oxo-3,4-dihydroquinazolin-6-ylamino)-2-oxoethyl acetate]
 | 1000 nM | O=C(NCCO)c1ccc2c(=O)n(Cc3ccc(Cl)cc3)cnc2c1 [compound 92, 3-(4-chlorobenzyl)-N-(2-hydroxyethyl)-4-oxo-3,4-dihydroquinazoline-7-carboxamide]
3160 nM |  | O=C(CO)Nc1ccc2ncn(Cc3ccc(C(F)(F)F)cc3)c(=O)c2c1 [XCVII, 2-hydroxy-N-(4-oxo-3-{[4-(trifluoromethyl)phenyl]methyl}(3-hydroquinazolin-6-yl))acetamide]
 | 3300 nM | CCC(c1ccc(Cl)c(Cl)c1)n1cnc2ccc(NC(=O)CO)cc2c1=O (stereo not shown) [compound 26, N-(3-(1-(3,4-dichlorophenyl)propyl)-4-oxo-3,4-dihydroquinazolin-6-yl)-2-hydroxyacetamide]
 | 78 nM | O=C(Nc1cnc2ncn(Cc3ccc(Cl)cc3)c(=O)c2c1)OCc1ccccc1 [compound 80, benzyl 3-(4-chlorobenzyl)-4-oxo-3,4-dihydropyrido[2,3-d]pyrimidin-6-ylcarbamate]
 | 1400 nM | O=C(Nc1ccc2ncn(Cc3cccc(C(F)(F)F)c3)c(=O)c2c1)OCc1ccccc1 [compound 40, benzyl 4-oxo-3-(3-(trifluoromethyl)benzyl)-3,4-dihydroquinazolin-6-ylcarbamate]
780 nM |  | COc1ccccc1OCC(=O)Nc1ccc2ncn(Cc3ccc(Cl)c(Cl)c3)c(=O)c2c1 [XXV, N-{3-[(3,4-dichlorophenyl)methyl]-4-oxo(3-hydroquinazolin-6-yl)}-2-(2-methoxyphenoxy)acetamide]
12000 nM |  | O=C(Nc1ccc2ncn(Cc3ccc(Cl)cc3)c(=O)c2c1)c1ccc(Cn2ccnc2)o1 [LVII, N-{3-[(4-chlorophenyl)methyl]-4-oxo(3-hydroquinazolin-6-yl)}[5-(imidazolylmethyl)(2-furyl)]carboxamide]
 | 890 nM | O=C(O)C(=O)Nc1ccc2ncn(Cc3ccc(Cl)c(Cl)c3)c(=O)c2c1 [compound 107, 2-(3-(3,4-dichlorobenzyl)-4-oxo-3,4-dihydroquinazolin-6-ylamino)-2-oxoacetic acid]
2920 nM |  | Cc1cc(C)cc(OCC(=O)Nc2ccc3ncn(Cc4ccc(Cl)c(Cl)c4)c(=O)c3c2)c1 [XX, N-{3-[(3,4-dichlorophenyl)methyl]-4-oxo(3-hydroquinazolin-6-yl)}-2-(3,5-dimethylphenoxy)acetamide]
 | 240 nM | O=C(CO)Nc1ccc2ncn(CCCCOc3cc(Cl)ccc3Cl)c(=O)c2c1 [compound 55, N-(3-(4-(2,5-dichlorophenoxy)butyl)-4-oxo-3,4-dihydroquinazolin-6-yl)-2-hydroxyacetamide]
 | 720 nM | O=C(Nc1ccc2ncn(Cc3ccc4ccccc4c3)c(=O)c2c1)OCc1ccccc1 [compound 32, benzyl 3-(naphthalen-2-ylmethyl)-4-oxo-3,4-dihydroquinazolin-6-ylcarbamate]
4380 nM |  | O=C(Nc1ccc2ncn(Cc3ccc(Cl)c(Cl)c3)c(=O)c2c1)OCCc1ccccc1 [LXXI, N-{3-[(3,4-dichlorophenyl)methyl]-4-oxo(3-hydroquinazolin-6-yl)}(2-phenylethoxy)carboxamide]
 | 470 nM | CC(=O)OCC(=O)Nc1ccc2ncn(Cc3ccc(C)c(C)c3)c(=O)c2c1 [compound 21, 2-(3-(3,4-dimethylbenzyl)-4-oxo-3,4-dihydroquinazolin-6-ylamino)-2-oxoethyl acetate]
